Results from US7297794B2, “Phenoxy amine compounds and compositions for delivering active agents” (Emisphere Technologies, Inc., priority 2001, dated 2007).
Several values for one entry are separate records, joined by “and”; a condition that tells them apart may be missing. Equal entries are not always repeated. Structures can show the parent of a compound that is named as a salt.

How the values were obtained:
[1] = Insulin - Oral Delivery (glucose levels in serum after oral dosing of delivery agent compound with human zinc insulin); type: in vivo, Male Sprague-Dawley rats; settings: rat, delivery agent compound 200 mg/kg + insulin 0.5 mg/kg, volume dose 2 ml/kg
Experimental: Oral dosing (PO) compositions of delivery agent compound and human zinc insulin (minimum 26 IU/mg available from Calbiochem-Novabiochem Corp, La Jolla, Calif.) were prepared in deionized water. Typically, 500 mg of delivery agent compound was added to 1.5 ml of water. The solution was vortexed, then heated (about 37° C.) and sonicated. The pH was adjusted to about 7 to 8.5 with NaOH or HCl. Additional NaOH was added, if necessary, to achieve uniform solubility, and the pH re-adjusted to about 7 to 8.5. Water was then added to bring the total volume to about 2.4 ml and vortexed. About 1.25 mg insulin from an insulin stock solution ([…] made from 0.5409 g insulin and 18 ml deionized water, adjusting with HCl and NaOH to pH 8.15 and to obtain a clear solution using […]) was added to the solution and mixed by inverting. The solution may be used in the dosing protocol immediately, or alternatively, the solution may be placed into a 37° C. water bath for one hour prior to dosing. The final delivery agent compound dose, insulin dose and dose volume amounts are listed below in Table 1.
The typical dosing and sampling protocols were as follows. […] A dosing group of five animals was administered one of the dosing solutions. […] The dosing solution was administered by pressing the syringe plunger.

[2] = Oral BIBN4096BS Delivery (peak BIBN4096BS concentration after oral gavage with delivery agent compound); settings: rat, delivery agent compound 200 mg/kg + BIBN4096BS 25 mg/kg, 1 ml/kg
Experimental: Oral gavage (PO) dosing solutions of delivery agent compound and the calcitonin gene-related peptide antagonist, 1-piperidinecarboxamide, N-[2-[[5-amino-1-[[4-(4-pyridinyl)-1-piperazinyl)carbonyl]pentyl]amino]-1-[(3,5-dibromo-4-hydroxyphenyl)methyl]-2-oxoethyl]-4(1,4-dihydro-2-oxo-3(2H0-quinazolinyl)-. [R—(R*,S*)]- (BIBN4096BS) in water were prepared. […] The final dosing solutions were prepared by mixing the delivery agent compound with a BIBN4096BS stock solution and diluting to the desired volume (usually 1.0 mL). If necessary, the pH of the mixture was adjusted by the addition of aliquots of aqueous hydrochloric acid solution of an appropriate normality until the final pH of the dissolved delivery agent compound was below 7.0. The final compound amounts per dose were 25 mg/kg of BIBN4096BS and 200 mg/kg of delivery agent compound in a total volume of 1 mL/kg.
The typical dosing and sampling protocols were as follows. Male Sprague-Dawley rats weighing between 200-250 g were fasted for 24 hours and administered ketamine (44 mg/kg) and chlorpromazine (1.5 mg/kg) 15 minutes prior to dosing. A dosing group of five rats was administered one of the dosing solutions. […] Plasma BIBN4096BS concentrations were quantified by using a liquid chromatography/mass spectrometry/mass spectrometry assay method using UV detection. […]

Row | melting point [°C] | Mean Peak Serum ± sd ng/ml (BIBN4096BS) [2] | Compound | Glucose Levels in Serum (% change from baseline ± SD) [1]
1 |  |  | Oc1ccccc1OCCCCCCCN1CCOCC1 [Compound 3, 7-(4-(2hydroxyphenoxy)heptylmorpholinium citrate] | −9.8 ± 4%
2 |  |  | Oc1ccc(OCCCCCCN2CCOCC2)cc1 [Compound 4] | −2.3 ± 10.6%
3 |  |  | NCCCCCCCCOc1ccc(O)cc1 [Compound 6, 8-(4-hydroxyphenoxy)octanamine] | 6.4 ± 17.1%
4 |  |  | Oc1ccccc1OCCCCCCCCN1CCOCC1 [Compound 1, 4-8-(2-hydroxyphenoxy) octylmorpholine] | −5.9 ± 4.6% and 0.3 ± 8.2%
5 | 137 to 139 |  | Oc1ccccc1OCCCCCCCCN1CCOCC1 (as salt: salt) [Compound 1, 4-8-(2-hydroxyphenoxy) octylmorpholine] | 
6 |  |  | OCCN(CCO)CCCCCCCCOc1ccccc1O [Compound 2, 8-(2-hydroxyphenoxy) octyldiethanolamine) citrate] | −10.8 ± 6.8%
7 |  |  | 4-(4-(2-hydroxyphenoxy)butyl)morpholinium Citrate [Compound 7] | −11.7 ± 3.4%
8 | 138 to 141 |  | CC(=O)c1ccccc1OCCCCCCN(C)C.Cl [Compound 8, 6-(2-acetylphenoxy)-1-dimethylaminohexane hydrochloride] | −8.2 ± 9.5%
9 |  | 408 ± 340 ng/mL and 608 ± 552 ng/mL | CS(=O)(=O)O.Oc1ccccc1OCCCCCCCCN1CCOCC1 [1 (Mesylate), (4-(8-(2-hydroxyphenoxy)octyl)morpholine)mesylate] | 
